The values that follow come from ChEMBL document CHEMBL1146447, “Evaluation of the antifungal activity of natural xanthones from Garcinia mangostana and their synthetic derivatives” (1997).

Assay type in all cases: functional
The test system of assay [1] is Alternaria alternata. The assay is described as follows: Antifungal activity against Alternaria tenuis at 1 ppm after 168 hrs at 24 hrs intervals.
Assay [2] has as its system Alternaria alternata. The assay is described as follows: Antifungal activity against Alternaria tenuis at 10 ppm after 168 hrs at 24 hrs intervals.
Assay [3] deals with Alternaria alternata. Description: Antifungal activity against Alternaria tenuis at 100 ppm after 168 hrs at 24 hrs intervals.
Assay [4] deals with Alternaria alternata. Description: Antifungal activity against Alternaria tenuis at 1000 ppm after 168 hrs at 24 hrs intervals.
Assay [5] has as its system Drechslera. Description: Antifungal activity against Drechslera oryzae at 1 ppm after 168 hrs at 24 hrs intervals.
The test system of assay [6] is Drechslera. Description: Antifungal activity against Drechslera oryzae at 10 ppm after 168 hrs at 24 hrs intervals.
Assay [7] has as its system Drechslera. Description: Antifungal activity against Drechslera oryzae at 100 ppm after 168 hrs at 24 hrs intervals.
In assay [8] the test system is Drechslera. Description: Antifungal activity against Drechslera oryzae at 1000 ppm after 168 hrs at 24 hrs intervals.
The subject of assay [9] is Fusarium oxysporum f. sp. vasinfectum. Description: Antifungal activity against Fusarium oxysporum vasinfectum at 1 ppm after 144 hrs at 24 hrs intervals.
Assay [10] shares this test system. Description: Antifungal activity against Fusarium oxysporum vasinfectum at 10 ppm after 144 hrs at 24 hrs intervals.
Assay [11] shares this test system. The assay is described as follows: Antifungal activity against Fusarium oxysporum vasinfectum at 100 ppm after 144 hrs at 24 hrs intervals.
The test system is the same in assay [12]. The assay is described as follows: Antifungal activity against Fusarium oxysporum vasinfectum at 1000 ppm after 144 hrs at 24 hrs intervals.

As a reminder, the inhibition is the change of the read-out against control, counted positive when it falls. For `CC(C)=CCc1c(O)cc2oc3cc(O)c(O)c(CC=C(C)C)c3c(=O)c2c1O`, the results for the inhibition at 1 ppm (with Alternaria alternata [1]; in the assay on Drechslera [5]; in assay [9]) were 1%, 5% and 0%, respectively. The inhibition at 10 ppm with Alternaria alternata [2] turned out to be 9%; in the assay on Drechslera [6], 35%; in assay [10], 6%. In addition, the inhibition at 100 ppm was 33% in the assay with Alternaria alternata [3], 81% in the assay with Drechslera [7] and 50% in [11]. Besides, the values for the inhibition at 1000 ppm (in the assay on Alternaria alternata [4]; with Drechslera [8]; in [12]) were 58%, 85% and 64%, respectively.
Turning to `COc1c(OC(C)C)cc2oc3cc(OC(C)C)c(CC=C(C)C)c(O)c3c(=O)c2c1CC=C(C)C`, the inhibition at 1 ppm with Alternaria alternata [1] is -10%; in the assay with Drechslera [5], -1%; in assay [9], 3%. For the same molecule, the inhibition at 10 ppm came out at 2% in the assay with Alternaria alternata [2], 4% in the assay on Drechslera [6] and 1% in assay [10]. Further, the inhibition at 100 ppm with Alternaria alternata [3] was -1%; with Drechslera [7], 1%; in assay [11], 4%. Further, the inhibition at 1000 ppm in the assay on Alternaria alternata [4] was found to be 1%; with Drechslera [8], 9%; in assay [12], 3%.
As to `C=CCOc1cc2oc3cc(OCC=C)c(OC)c(CC=C(C)C)c3c(=O)c2c(O)c1CC=C(C)C`, the inhibition at 1 ppm was -22% in the assay with Alternaria alternata [1], -19% in the assay on Drechslera [5] and 0% in assay [9]. In addition, the inhibition at 10 ppm in the assay with Alternaria alternata [2] is -13%; in the assay on Drechslera [6] it was -18%; in [10] it was 1%. Further, the results for the inhibition at 100 ppm (in the assay with Alternaria alternata [3]; in the assay with Drechslera [7]; in assay [11]) were 8%, -4% and 4%, respectively. The values for the inhibition at 1000 ppm (in the assay with Alternaria alternata [4]; in the assay with Drechslera [8]; in assay [12]) were 42%, -34% and 1%, respectively.
Take `COc1c(O)cc2oc3cc4c(c(O)c3c(=O)c2c1CC=C(C)C)CCC(C)(C)O4`: the inhibition at 1 ppm came out at 11% in the assay with Alternaria alternata [1], 29% in the assay on Drechslera [5] and 4% in assay [9]. The inhibition at 10 ppm in the assay with Alternaria alternata [2] was determined as 15%; in the assay on Drechslera [6], 45%; in assay [10], 8%. Moreover, the inhibition at 100 ppm in the assay on Alternaria alternata [3] turned out to be 28%; in the assay with Drechslera [7], 58%; in [11], 19%. Moreover, the results for the inhibition at 1000 ppm (in the assay with Alternaria alternata [4]; in the assay on Drechslera [8]; in [12]) were 31%, 61% and 18%, respectively.
In the case of `COc1cc2oc3cc(OC)c(OC)c(CC=C(C)C)c3c(=O)c2c(O)c1CC=C(C)C`, the inhibition at 1 ppm in the assay with Alternaria alternata [1] is 14%; in the assay with Drechslera [5] it was 7%; in [9] it was 5%. For the same molecule, the inhibition at 10 ppm in the assay on Alternaria alternata [2] was 22%; in the assay with Drechslera [6], 9%; in assay [10], 12%. Besides, the inhibition at 100 ppm is 16% with Alternaria alternata [3], 27% with Drechslera [7] and 16% in assay [11]. Further, the values for the inhibition at 1000 ppm (with Alternaria alternata [4]; in the assay with Drechslera [8]; in [12]) were 16%, 41% and 17%, respectively.
Turning to `CCCOc1cc2oc3cc(OCCC)c(OC)c(CC=C(C)C)c3c(=O)c2c(O)c1CC=C(C)C`, the inhibition at 1 ppm with Alternaria alternata [1] is -6%; in the assay on Drechslera [5] it was 8%; in [9], -4%. Besides, the values for the inhibition at 10 ppm (in the assay on Alternaria alternata [2]; in the assay with Drechslera [6]; in assay [10]) were -3%, -25% and 5%, respectively. Also, the inhibition at 100 ppm in the assay with Alternaria alternata [3] is -2%; in the assay with Drechslera [7] it was -36%; in [11], -6%. Also, the inhibition at 1000 ppm in the assay with Alternaria alternata [4] was 1%; with Drechslera [8], -10%; in assay [12], -2%.
For `COc1c(OC(C)=O)cc2oc3cc(OC(C)=O)c(CC=C(C)C)c(O)c3c(=O)c2c1CC=C(C)C`, the values for the inhibition at 1 ppm (with Alternaria alternata [1]; with Drechslera [5]; in assay [9]) were 8%, 11% and 6%, respectively. Moreover, the inhibition at 10 ppm in the assay with Alternaria alternata [2] is 6%; in the assay on Drechslera [6], 51%; in assay [10] it was 5%. In addition, the inhibition at 100 ppm in the assay on Alternaria alternata [3] is 6%; in the assay on Drechslera [7], 11%; in [11] it was 4%. Besides, the values for the inhibition at 1000 ppm (in the assay on Alternaria alternata [4]; in the assay with Drechslera [8]; in assay [12]) were -6%, 14% and 3%, respectively.
Take `CCCCOc1cc2oc3cc(OCCCC)c(OC)c(CC=C(C)C)c3c(=O)c2c(O)c1CC=C(C)C`: the inhibition at 1 ppm with Alternaria alternata [1] is 1%; in the assay with Drechslera [5], -38%; in [9], -7%. Moreover, the inhibition at 10 ppm in the assay on Alternaria alternata [2] was 4%; in the assay on Drechslera [6], -38%; in assay [10], -4%. Further, the inhibition at 100 ppm is -2% with Alternaria alternata [3], -66% in the assay on Drechslera [7] and -4% in [11]. Also, the inhibition at 1000 ppm in the assay with Alternaria alternata [4] is -5%; in the assay on Drechslera [8], -69%; in assay [12], -3%.
`S=c1c2ccccc2oc2ccccc12`: the values for the inhibition at 1 ppm (in the assay with Alternaria alternata [1]; in the assay on Drechslera [5]; in assay [9]) were -6%, 11% and 2%, respectively. Further, the inhibition at 10 ppm was -12% with Alternaria alternata [2], 5% in the assay with Drechslera [6] and 4% in [10]. For the same molecule, the inhibition at 100 ppm is -22% in the assay on Alternaria alternata [3], -11% in the assay on Drechslera [7] and 4% in [11]. The inhibition at 1000 ppm is -32% with Alternaria alternata [4], 10% in the assay on Drechslera [8] and 6% in assay [12].
For the molecule `C=C(C)COc1cc2oc3cc(OCC(=C)C)c(OC)c(CC=C(C)C)c3c(=O)c2c(O)c1CC=C(C)C`, the inhibition at 1 ppm in the assay on Alternaria alternata [1] was -8%; in the assay with Drechslera [5] it was -1%; in assay [9], 1%. The inhibition at 10 ppm is -2% in the assay on Alternaria alternata [2], -1% in the assay with Drechslera [6] and 2% in assay [10]. The inhibition at 100 ppm was 4% in the assay on Alternaria alternata [3], -1% with Drechslera [7] and 3% in [11]. Also, the values for the inhibition at 1000 ppm (with Alternaria alternata [4]; in the assay on Drechslera [8]; in [12]) were -1%, 17% and 9%, respectively.
In the case of `CCOc1cc2oc3cc(OCC)c(OC)c(CC=C(C)C)c3c(=O)c2c(O)c1CC=C(C)C`, the inhibition at 1 ppm in the assay with Alternaria alternata [1] was -4%; with Drechslera [5], -72%; in assay [9] it was -3%. For the same molecule, the inhibition at 10 ppm in the assay on Alternaria alternata [2] is 4%; with Drechslera [6], -34%; in assay [10], -2%. Also, the inhibition at 100 ppm in the assay with Alternaria alternata [3] is -11%; in the assay on Drechslera [7], -31%; in assay [11], -3%. For the same molecule, the inhibition at 1000 ppm in the assay with Alternaria alternata [4] was -1%; in the assay with Drechslera [8], -57%; in [12] it was -1%.
Turning to `CC1(C)CCc2c(cc3oc4cc(O)c5c(c4c(=O)c3c2O)CCC(C)(C)O5)O1` [BR-XANTHONE A], the inhibition at 1 ppm was determined as 14% in the assay on Alternaria alternata [1], 27% in the assay with Drechslera [5] and 3% in assay [9]. The inhibition at 10 ppm in the assay on Alternaria alternata [2] amounted to 18%; in the assay on Drechslera [6] it was 28%; in [10], 0%. The inhibition at 100 ppm with Alternaria alternata [3] turned out to be 15%; with Drechslera [7] it was 31%; in [11], 0%. The values for the inhibition at 1000 ppm (in the assay on Alternaria alternata [4]; with Drechslera [8]; in assay [12]) were 14%, 36% and 3%, respectively.
As to `COc1c(O)cc2oc3cc(O)c(CC=C(C)C)c(O)c3c(=O)c2c1CCC(C)(C)O` [GARCINONE D], the inhibition at 1 ppm in the assay on Alternaria alternata [1] was -7%; with Drechslera [5] it was 27%; in [9], -1%. For the same molecule, the values for the inhibition at 10 ppm (with Alternaria alternata [2]; in the assay with Drechslera [6]; in assay [10]) were 2%, 30% and 10%, respectively. For the same molecule, the values for the inhibition at 100 ppm (in the assay with Alternaria alternata [3]; in the assay with Drechslera [7]; in assay [11]) were -11%, 43% and 12%, respectively. Also, the values for the inhibition at 1000 ppm (in the assay with Alternaria alternata [4]; in the assay with Drechslera [8]; in assay [12]) were 26%, 64% and 41%, respectively.
For the molecule `CC(C)=CCc1c(O)c(CC=C(C)C)c2oc3c(O)ccc(O)c3c(=O)c2c1O` [GARTANIN], the inhibition at 1 ppm with Alternaria alternata [1] is 4%; in the assay on Drechslera [5], 18%; in assay [9], 3%. In addition, the inhibition at 10 ppm in the assay on Alternaria alternata [2] was found to be 20%; in the assay on Drechslera [6], 54%; in assay [10], 4%. Moreover, the inhibition at 100 ppm with Alternaria alternata [3] is 22%; in the assay with Drechslera [7] it was 75%; in [11], 9%. The inhibition at 1000 ppm in the assay with Alternaria alternata [4] came out at 29%; in the assay with Drechslera [8] it was 71%; in assay [12], 12%.
Take `COc1c(O)cc2oc3cc(O)c(CC=C(C)C)c(O)c3c(=O)c2c1CC=C(C)C` [MANGOSTIN]: the inhibition at 1 ppm was found to be 17% in the assay on Alternaria alternata [1], 55% with Drechslera [5] and 11% in assay [9]. In addition, the values for the inhibition at 10 ppm (with Alternaria alternata [2]; in the assay with Drechslera [6]; in assay [10]) were 38%, 51% and 22%, respectively. Also, the inhibition at 100 ppm in the assay with Alternaria alternata [3] came to 39%; with Drechslera [7], 54%; in assay [11], 29%. Also, the inhibition at 1000 ppm in the assay with Alternaria alternata [4] turned out to be 41%; in the assay on Drechslera [8] it was 53%; in assay [12] it was 24%.
